The values that follow are results of earlier work, collected in patent US5276058A, “3,4-dihydroxychalcone derivatives” (Nippon Hypox Laboratories Incorporated, priority 1993, dated 1994).

For data set [1] the following is noted: JP,A 63-297847; cited from earlier work.
The conditions of data set [2]: JP,A 61-76433; cited from earlier work.

Each structure is given as a SMILES string.

As for `O=C(/C=C/c1ccc(O)c(O)c1)c1cccc(O)c1O` [2',3',3,4-tetrahydroxychalcone], in data set [1], the anti-inflammatory activity entry is given as “extensive anti-inflammatory activity”. With `COc1ccc(C(=O)C=Cc2ccc(O)c(O)c2)c(OC)c1OC` [3-(3,4-dihydroxyphenyl)-1-(2,3,4-trimethoxyphenyl)-2-propen-1-one], the antiallergic activity entry in data set [2] was “antiallergic activity”.
